Reference: publication PMC11003450, “Structure-property relationships of fluorinated carboxylic acid bioisosteres” (Bioorganic & medicinal chemistry letters, 2023)
Where two headings read alike, the source gives them in different places.

Legend:
[1] = PAMPA (parallel artificial membrane permeability assay, ran by Analiza); type: in vitro ADME; details: for Papp: PAMPA
Text: In this work, in order to compare the properties of fluorinated carboxylic acid surrogates with those of other commonly used nonfluorinated bioisosteres, we present the design and synthesis of a focused set of matched molecular pairs (MMPs), which include examples of substituted alcohols and phenols featuring one or more fluorine atoms, and the characterization of these compounds for key physicochemical properties such as acidity (pKa), lipophilicity (logD7.4 and permeability (logPapp) in a parallel artificial membrane permeability assay (PAMPA). The data presented allow for an assessment of the impact of incorporation of fluorine on the physicochemical properties of carboxylic acid surrogates.

[2] = pKa by potentiometric titration (Sirius T3)
[3] = logD7.4 by potentiometric titration (Sirius T3); details: n-octanol/aqueous buffer
[4] = supplement csv; previously described derivatives A-Y; ref [3]-[5]; cited from earlier work
[5] = supplement csv; previously described phenylpropionic acid derivatives A-Y; ref [3]-[5]; cited from earlier work
[6] = class by Pe, read-out: PAMPA Permeability
[7] = pKa (anilinium/aniline), anilinium/aniline pKa, Table 1
[8] = pKa, acidic group (carboxylic acid, alcohol or phenol), Table 1
[9] = pH 7.4, logD7.4, n-octanol / aqueous buffer pH 7.4, Table 1
[10] = pH 7.4, logD7.4, supplement csv, compounds 1, 2, 3-10
[11] = difference between experimental and calculated pKa, experimental vs ChemAxon
[12] = pKa (anilinium/aniline), supplement csv, first value of cell, anilinium/aniline
[13] = read-out: PAMPA Pe (effective permeability)

Compound | pKa [4] | logD7.4 [5] | other results
O=C(O)CCc1ccccc1 [Compound 1] |  |  | Papp [1, 6]: > 1.5 ×10⁻⁶ cm/s
Nc1ccc(CCC(=O)O)cc1 [Compound 2] |  |  | pKa [2, 7]: 5.17; pKa [2, 8]: 4.12; PAMPA % retention (membrane retention) [1]: 0.05%; Papp [1, 6]: < 1.5 ×10⁻⁶ cm/s; logD [3, 9]: -2.13; logD [3, 10]: -2.13
Nc1ccc(CCC(O)(C(F)(F)F)C(F)(F)F)cc1 [Compound 3] |  |  | pKa [2, 11]: 1 to 1.7; pKa [2, 7]: 4.06; pKa [2, 12]: 4.88; pKa [2, 8]: 7.96; pKa ([2]; pKa, supplement csv, acidic group, compounds 1, 2, 3-10): 9.38; PAMPA % retention (membrane retention) [1]: 0.171%; Papp [1, 6]: > 1.5 ×10⁻⁶ cm/s; Papp [1, 13]: 12 ×10⁻⁶ cm/s; logD [3, 9]: 3.04; logD [3, 10]: 3.14
Nc1ccc(CCC(O)(C(F)F)C(F)F)cc1 [Compound 4] |  |  | pKa [2, 11]: 1 to 1.7; pKa [2, 7]: 4.79; pKa [2, 8]: > 12; PAMPA % retention (membrane retention) [1]: 0.02%; Papp [1, 6]: > 1.5 ×10⁻⁶ cm/s; Papp [1, 13]: 10.1 ×10⁻⁶ cm/s; logD [3, 9]: 1.46; logD [3, 10]: 1.46
Nc1ccc(CCC(O)C(F)(F)F)cc1 (centres unmarked) [Compound 5] |  |  | pKa [2, 7]: 4.72; pKa [2, 12]: 4.9; pKa [2, 8]: 11.7; Papp [1, 6]: > 1.5 ×10⁻⁶ cm/s; Papp [1, 13]: 11.7 ×10⁻⁶ cm/s; logD [3, 9]: 1.83; logD [3, 10]: 1.83
Nc1ccc(CCC(O)C(F)F)cc1 (centres unmarked) [Compound 6] |  |  | pKa [2, 7]: 4.87; pKa [2, 8]: > 12; PAMPA % retention (membrane retention) [1]: 0.015%; Papp [1, 6]: > 1.5 ×10⁻⁶ cm/s; Papp [1, 13]: 10.2 ×10⁻⁶ cm/s; logD [3, 9]: 0.92; logD [3, 10]: 0.92
Nc1ccc(Cc2cccc(O)c2C(F)(F)F)cc1 [Compound 7] |  |  | pKa [2, 7]: 4.69; pKa [2, 8]: 8.85; PAMPA % retention (membrane retention) [1]: 0.195%; Papp [1, 6]: > 1.5 ×10⁻⁶ cm/s; Papp [1, 13]: 13.8 ×10⁻⁶ cm/s; logD [3, 9]: 3.17; logD [3, 10]: 3.17
Nc1ccc(Cc2cccc(O)c2OC(F)(F)F)cc1 [Compound 8] |  |  | pKa [2, 7]: 4.58; pKa [2, 8]: 9.67; PAMPA % retention (membrane retention) [1]: 0.36%; Papp [1, 6]: > 1.5 ×10⁻⁶ cm/s; Papp [1, 13]: 8.63 ×10⁻⁶ cm/s; logD [3, 9]: 2.29; logD [3, 10]: 2.29
Nc1ccc(Cc2cccc(O)c2SC(F)(F)F)cc1 [Compound 9] |  |  | pKa [2, 7]: 4.24; pKa [2, 8]: 9.51; Papp [1, 6]: > 1.5 ×10⁻⁶ cm/s; Papp [1, 13]: 7.28 ×10⁻⁶ cm/s; logD [3, 9]: 2.72; logD [3, 10]: 2.72
Nc1ccc(Cc2cccc(O)c2[S+]([O-])C(F)(F)F)cc1 (centres unmarked) [Compound 10] |  |  | pKa [2, 7]: 4.21; pKa [2, 8]: 7.93; PAMPA % retention (membrane retention) [1]: 0.24%; Papp [1, 6]: > 1.5 ×10⁻⁶ cm/s; Papp [1, 13]: 10.5 ×10⁻⁶ cm/s; logD [3, 9]: 1.96; logD [3, 10]: 2
Oc1cccc(Cc2ccccc2)c1C(F)(F)F [Compound 32] |  |  | pKa ([2]; difference in Δ pKa between 32 and 7, Δ = isostere minus corresponding -COOH, 32 vs matched pair 7): 0.46; pKa [2, 8]: 8.91; logD [3, 9]: 4.29
O=C(CCc1ccccc1)NO [Compound A1] | 8.18 |  | 
CC(=O)N(O)CCc1ccccc1 [Compound A2] | 8.83 |  | 
CONC(=O)CCc1ccccc1 [Compound B1] | 9.47 |  | 
CC(=O)NOCCc1ccccc1 [Compound B2] | 9.58 |  | 
NS(=O)(=O)CCc1ccccc1 [Compound G1] | 10.04 |  | 
CN(C)S(=O)(=O)NC(=O)CCc1ccccc1 [Compound H2] | 5.79 | 0.12 | 
CC1(NS(=O)(=O)CCc2ccccc2)COC1 [Compound H5] | 10.45 | 1.58 | 
CC(=O)NC1(CCc2ccccc2)CS(=O)(=O)C1 [Compound H6] | >12 | 1.18 | 
O=S(=O)(NC1(CCc2ccccc2)COC1)c1ccccc1 [Compound H8] | 10.29 | 2.76 | 

Compound | pKa [4] | logD7.4 [5] | other results
CN(C)S(=O)(=O)NC1(CCc2ccccc2)COC1 [Compound H9] | 11.02 | 1.96 | 
CS(=O)(=O)NC1(CCc2ccccc2)CSC1 [Compound H10] | 10.45 | 2.44 | 
O=S(=O)(NC1(CCc2ccccc2)CSC1)c1ccccc1 [Compound H11] | >12 | 2.96 | 
CN(C)S(=O)(=O)NC1(CCc2ccccc2)CSC1 [Compound H12] | 11.93 | 2.83 | 
CS(=O)(=O)NC1(CCc2ccccc2)C[S+]([O-])C1 (centres unmarked) [Compound H13] | 9.87 | 0.87 | 
O=S(=O)(NC1(CCc2ccccc2)C[S+]([O-])C1)c1ccccc1 (centres unmarked) [Compound H14] |  | 0.76 | 
CN(C)S(=O)(=O)NC1(CCc2ccccc2)C[S+]([O-])C1 (centres unmarked) [Compound H15] | 10.33 | 1.45 | 
CS(=O)(=O)NC1(CCc2ccccc2)CS(=O)(=O)C1 [Compound H16] | 9.44 | 1.03 | 
O=S1(=O)CC(CCc2ccccc2)(NS(=O)(=O)c2ccccc2)C1 [Compound H17] | 10.22 | 1.89 | 
CN(C)S(=O)(=O)NC1(CCc2ccccc2)CS(=O)(=O)C1 [Compound H18] | 9.58 | 1.82 | 
CS(=O)(=O)Nc1cc(-c2ccccc2)on1 [Compound H19] | 5.22 | -0.42 | 
O=S(=O)(Nc1cc(-c2ccccc2)on1)c1ccccc1 [Compound H20] | 6.62 | 0.99 | 
CN(C)S(=O)(=O)Nc1cc(-c2ccccc2)on1 [Compound H21] | 5.62 | 0.42 | 
CS(=O)(=O)Nc1cn(-c2ccccc2)nn1 [Compound H22] | 6.34 | 0.06 | 
O=S(=O)(Nc1cn(-c2ccccc2)nn1)c1ccccc1 [Compound H23] | 5.93 | 1.06 | 
CN(C)S(=O)(=O)Nc1cn(-c2ccccc2)nn1 [Compound H24] | 6.42 | 0.69 | 
O=C1C=C(O)CC1Cc1ccccc1 (centres unmarked) [Compound T1] | 4.01 | -0.7 | 
CC1=C(O)C(Cc2ccccc2)CC1=O (centres unmarked) [Compound T2] | 4.47 | -0.33 | 
O=C1CCC(O)=C1Cc1ccccc1 [Compound T3] | 4.44 | -0.6 | 
O=C1CCC(Cc2ccccc2)=C1O [Compound U1] | 8.88 |  | 

Compound | pKa [4] | logD7.4 [5] | other results
O=C1CC(c2ccccc2)C=C1O (centres unmarked) [Compound U2] | 8.28 |  | 
Oc1c(F)cc(Cc2ccccc2)cc1F [Compound W1] | 7.19 |  | 
Oc1c(F)ccc(Cc2ccccc2)c1F [Compound W2] | 7.05 |  | 
Oc1ccccc1SCc1ccccc1 [Compound W3] | 9.06 | 3.78 | 
[O-][S+](Cc1ccccc1)c1ccccc1O (centres unmarked) [Compound W4] | 7.7 |  | 
O=S(=O)(Cc1ccccc1)c1ccccc1O [Compound W5] | 7.12 |  | 
OC1(CCc2ccccc2)CSC1 [Compound X1] | >12 |  | 
[O-][S+]1CC(O)(CCc2ccccc2)C1 (centres unmarked) [Compound X2] | >12 |  | 
O=[PH](O)CCc1ccccc1 [D] | 1.98 |  | 
O=S(O)CCc1ccccc1 [F] | 2.1 |  | 
CS(=O)(=O)NC(=O)NCc1ccccc1 [I] | 5.04 | -1.19 | 
c1ccc(CCc2nnn[nH]2)cc1 [K] | 5.09 | -0.36 | 
O=C1NC(=O)C(Cc2ccccc2)S1 (centres unmarked) [L] | 6.19 |  | 
O=C1NC(=O)C(Cc2ccccc2)O1 (centres unmarked) [M] | 5.86 |  | 
O=c1[nH]c(CCc2ccccc2)no1 [N] | 5.73 |  | 
O=c1[nH]c(CCc2ccccc2)ns1 [O] | 6.5 |  | 
S=c1[nH]c(CCc2ccccc2)no1 [Q] | 3.58 |  | 
Oc1cc(Cc2ccccc2)on1 [R] | 5.36 |  | 
O=C1CC(=O)C(Cc2ccccc2)N1 (centres unmarked) [S] | 6.08 |  | 
OC1(CCc2ccccc2)COC1 [Y] | >12 |  | 
